BindingDB's records for doi:10.1021/jm070276i (Abbott Laboratories, 2007)
pEC50: −log10 of the molar value.

Target: Transient receptor potential cation channel subfamily V member 1 (Homo sapiens, UniProt Q8NER1)
Experiment: Ca2+ Influx Functional Assay for the Determination of in Vitro Activity.
Method: The functional antagonist activity of compounds at the TRPV1 receptor was determined with a Ca2+ influx assay by measuring the effect on capsaicin (0.05 uM) evoked increase in intracellular Ca2+ levels using cells stably expressing recombinant human TRPV1. All compounds were tested over an 11-point half-log concentration range. The fluorescent Ca2+ chelating dye fluo-4 was used as an indicator of the relative levels of Ca2+ in a 96-well format using a fluorescence imaging plate reader. Fluorescence readings were made at 1-5 s intervals over the 240 s course of the experimental run. The peak increase in relative fluorescence units was calculated and expressed as a percentage of the 0.05 uM capsaicin (control) response. Curve fits of the data were solved using a four-parameter logistic Hill equation in GraphPad Prism, and IC50 values were calculated.

Transient receptor potential cation channel subfamily V member 1, sequence (Q8NER1 whole entry): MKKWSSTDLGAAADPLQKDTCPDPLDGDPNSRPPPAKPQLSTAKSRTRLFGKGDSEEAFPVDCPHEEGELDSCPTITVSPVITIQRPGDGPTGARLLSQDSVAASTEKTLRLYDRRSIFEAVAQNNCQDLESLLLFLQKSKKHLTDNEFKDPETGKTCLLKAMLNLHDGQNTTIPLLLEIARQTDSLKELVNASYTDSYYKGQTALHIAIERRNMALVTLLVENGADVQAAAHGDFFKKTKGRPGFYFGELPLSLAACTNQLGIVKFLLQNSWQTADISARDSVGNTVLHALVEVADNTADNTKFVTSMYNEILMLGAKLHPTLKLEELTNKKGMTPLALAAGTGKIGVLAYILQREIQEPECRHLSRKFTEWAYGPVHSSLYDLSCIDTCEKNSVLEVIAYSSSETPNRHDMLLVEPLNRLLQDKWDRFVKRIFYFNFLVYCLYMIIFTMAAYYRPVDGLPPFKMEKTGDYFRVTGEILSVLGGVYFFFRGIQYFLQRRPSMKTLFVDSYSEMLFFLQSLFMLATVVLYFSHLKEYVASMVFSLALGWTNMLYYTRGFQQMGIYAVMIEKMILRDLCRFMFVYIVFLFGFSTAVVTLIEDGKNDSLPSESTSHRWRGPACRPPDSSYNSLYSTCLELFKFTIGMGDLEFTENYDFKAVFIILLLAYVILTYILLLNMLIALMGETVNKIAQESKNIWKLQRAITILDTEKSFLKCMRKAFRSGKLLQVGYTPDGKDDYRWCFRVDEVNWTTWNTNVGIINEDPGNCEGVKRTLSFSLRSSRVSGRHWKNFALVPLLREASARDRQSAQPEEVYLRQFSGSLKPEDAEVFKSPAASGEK

| Structure (SMILES) | pEC50 (pH 7.4, 22 °C) | pEC50 |
| --- | --- | --- |
| O=C(NCc1ccc(N2CCCCCCC2)cc1)Nc1cccc2cnccc12 [3-{[4-(azocan-1-yl)phenyl]methyl}-1-isoquinolin-5-ylurea] | 8.33 | – |
| CN(C)c1ccc(CNC(=O)Nc2cccc3cnccc23)cc1 [3-{[4-(dimethylamino)phenyl]methyl}-1-isoquinolin-5-ylurea] | 6.80 | – |
| CC1CCN(c2ccc(CNC(=O)Nc3cccc4cnccc34)cc2)CC1 [1-isoquinolin-5-yl-3-{[4-(4-methylpiperidin-1-yl)phenyl]methyl}urea] | 8.03 | – |
| O=C(NCc1ccc(N2CCCCCC2)c(C(F)(F)F)c1)Nc1cccc2cnccc12 [3-{[4-(azepan-1-yl)-3-(trifluoromethyl)phenyl]methyl}-1-isoquinolin-5-ylurea] | 8.34 | – |
| O=C(NCc1ccc(N2CCCCC2)cc1)Nc1cccc2cnccc12 [1-isoquinolin-5-yl-3-{[4-(piperidin-1-yl)phenyl]methyl}urea] | 8.14 | – |
| O=C(NCc1ccc(N2CCCCCC2)cc1C(F)(F)F)Nc1cccc2cnccc12 [3-{[4-(azepan-1-yl)-2-(trifluoromethyl)phenyl]methyl}-1-isoquinolin-5-ylurea] | 8.24 | – |
| O=C(NCc1cc(F)c(N2CCCCCC2)c(F)c1)Nc1cccc2[nH]ncc12 [1-{[4-(azepan-1-yl)-3,5-difluorophenyl]methyl}-3-1H-indazol-4-ylurea] | 7.41 | – |
| O=C(NCc1ccc(N2[C@@H]3CCC[C@H]2CC3)c(C(F)(F)F)c1)Nc1cccc2[nH]ncc12 [1-({4-[(1R,5S)-8-azabicyclo[3.2.1]octan-8-yl]-3-(trifluoromethyl)phenyl}methyl)-3-1H-indazol-4-ylurea] | – | 7.57 |
| O=C(NCc1ccc(N2[C@@H]3CCC[C@H]2CC3)cc1C(F)(F)F)Nc1cccc2[nH]ncc12 [1-({4-[(1R,5S)-8-azabicyclo[3.2.1]octan-8-yl]-2-(trifluoromethyl)phenyl}methyl)-3-1H-indazol-4-ylurea] | 7.26 | – |
| CC1CN(c2ccc(CNC(=O)Nc3cccc4cnccc34)cc2)CC(C)O1 (stereo not given) [3-{[4-(2,6-dimethylmorpholin-4-yl)phenyl]methyl}-1-isoquinolin-5-ylurea] | 6.59 | – |
| O=C(NCc1ccc(N2[C@@H]3CCC[C@H]2CC3)c(F)c1)Nc1cccc2[nH]ncc12 [1-({4-[(1R,5S)-8-azabicyclo[3.2.1]octan-8-yl]-3-fluorophenyl}methyl)-3-1H-indazol-4-ylurea] | – | 7.83 |
| O=C(NCc1ccc(N2CCCCCC2)cc1)Nc1cccc2cnccc12 [3-{[4-(azepan-1-yl)phenyl]methyl}-1-isoquinolin-5-ylurea] | 8.48 | – |
| Cc1cc2c(NC(=O)NCc3ccc(N4CCCCCC4)cc3)cccc2cn1 [3-{[4-(azepan-1-yl)phenyl]methyl}-1-(3-methylisoquinolin-5-yl)urea] | 8.42 | – |
| O=C(NCc1ccc(N2[C@@H]3CCC[C@H]2CC3)c(Cl)c1)Nc1cccc2[nH]ncc12 [1-({4-[(1R,5S)-8-azabicyclo[3.2.1]octan-8-yl]-3-chlorophenyl}methyl)-3-1H-indazol-4-ylurea] | – | 7.69 |
| O=C(NCc1ccc(N2CCOCC2)cc1)Nc1cccc2cnc(Cl)cc12 [1-(3-chloroisoquinolin-5-yl)-3-{[4-(morpholin-4-yl)phenyl]methyl}urea] | 6.81 | – |
| Cn1c2ccccc2c2cc(CNC(=O)Nc3cccc4[nH]ncc34)ccc21 [3-1H-indazol-4-yl-1-[(9-methyl-9H-carbazol-3-yl)methyl]urea] | – | 6.04 |
| O=C(NCc1ccc(N2[C@@H]3CCC[C@H]2CC3)cc1Cl)Nc1cccc2[nH]ncc12 [1-({4-[(1R,5S)-8-azabicyclo[3.2.1]octan-8-yl]-2-chlorophenyl}methyl)-3-1H-indazol-4-ylurea] | 7.23 | – |
| O=C(NCc1cc(F)c(N2CCOCC2)c(F)c1)Nc1cccc2cnccc12 [3-{[3,5-difluoro-4-(morpholin-4-yl)phenyl]methyl}-1-isoquinolin-5-ylurea] | 8.03 | – |
| O=C(NCc1ccc(N2CCCCCC2)c(F)c1)Nc1cccc2cnccc12 [3-{[4-(azepan-1-yl)-3-fluorophenyl]methyl}-1-isoquinolin-5-ylurea] | 8.55 | – |
| Cc1cc2c(NC(=O)NCc3ccc(N4Cc5ccccc5C4)c(F)c3)cccc2cn1 [3-{[4-(2,3-dihydro-1H-isoindol-2-yl)-3-fluorophenyl]methyl}-1-(3-methylisoquinolin-5-yl)urea] | 5.13 | – |
| O=C(NCc1ccc(N2CCOCC2)cc1)Nc1cccc2cnccc12 [1-isoquinolin-5-yl-3-{[4-(morpholin-4-yl)phenyl]methyl}urea] | 7.04 | – |
| O=C(NCc1ccc(N2[C@@H]3CCC[C@H]2CC3)cc1)Nc1cccc2[nH]ncc12 [1-({4-[(1R,5S)-8-azabicyclo[3.2.1]octan-8-yl]phenyl}methyl)-3-1H-indazol-4-ylurea] | 7.74 | – |
| O=C(NCc1ccc(N2CCCCCC2)cc1Cl)Nc1cccc2cnccc12 [3-{[4-(azepan-1-yl)-2-chlorophenyl]methyl}-1-isoquinolin-5-ylurea] | 8.28 | – |
| O=C(NCc1cc(F)c(N2[C@@H]3CCC[C@H]2CC3)c(F)c1)Nc1cccc2[nH]ncc12 [1-({4-[(1R,5S)-8-azabicyclo[3.2.1]octan-8-yl]-3,5-difluorophenyl}methyl)-3-1H-indazol-4-ylurea] | – | 7.90 |
| Nc1cc2c(NC(=O)NCc3ccc(N4CCCCCC4)cc3)cccc2cn1 [1-(3-aminoisoquinolin-5-yl)-3-{[4-(azepan-1-yl)phenyl]methyl}urea] | 8.01 | – |
| O=C(NCc1ccc(C(F)(F)F)cc1)Nc1cccc2cnccc12 [1-isoquinolin-5-yl-3-{[4-(trifluoromethyl)phenyl]methyl}urea] | 8.68 | – |

The remaining lines, values ahead:

| pEC50 (pH 7.4, 22 °C) | pEC50 | Structure (SMILES) |
| --- | --- | --- |
| – | 7.36 | O=C(NCc1ccc(N2[C@@H]3CCC[C@H]2CC3)c(Br)c1)Nc1cccc2[nH]ncc12 [1-({4-[(1R,5S)-8-azabicyclo[3.2.1]octan-8-yl]-3-bromophenyl}methyl)-3-1H-indazol-4-ylurea] |
| – | 6.80 | O=C1C[C@H]2CC[C@@H](C1)N2c1cc(F)c(CNC(=O)Nc2cccc3[nH]ncc23)cc1F [1-({2,5-difluoro-4-[(1R,5S)-3-oxo-8-azabicyclo[3.2.1]octan-8-yl]phenyl}methyl)-3-1H-indazol-4-ylurea] |
| 8.48 | – | O=C(NCc1ccc(N2[C@@H]3CCC[C@H]2CC3)cc1)Nc1cccc2cnccc12 [3-({4-[(1R,5S)-8-azabicyclo[3.2.1]octan-8-yl]phenyl}methyl)-1-isoquinolin-5-ylurea] |
| 6.72 | – | O=C(NCc1ccc(N2CCCCCC2)cc1Cl)Nc1cccc2[nH]ncc12 [1-{[4-(azepan-1-yl)-2-chlorophenyl]methyl}-3-1H-indazol-4-ylurea] |
| – | 7.09 | O=C(NCc1cc(F)c(N2[C@@H]3CC[C@H]2CC2(C3)OCCO2)cc1F)Nc1cccc2[nH]ncc12 [1-({4-[(1S,5R)-8-azaspiro[bicyclo[3.2.1]octane-3,2'-[1,3]dioxolane]]-2,5-difluorophenyl}methyl)-3-1H-indazol-4-ylurea] |
| – | 6.55 | CCN1CCc2cc(CNC(=O)Nc3cccc4[nH]ncc34)ccc21 [1-[(1-ethyl-2,3-dihydro-1H-indol-5-yl)methyl]-3-1H-indazol-4-ylurea] |
| – | 7.72 | Cn1ncc2c(NC(=O)NCc3ccc(N4[C@@H]5CCC[C@H]4CC5)cc3Cc3ccccc3)cccc21 [1-({4-[(1R,5S)-8-azabicyclo[3.2.1]octan-8-yl]-2-benzylphenyl}methyl)-3-(1-methyl-1H-indazol-4-yl)urea] |
| – | 7.70 | Cc1cc(CNC(=O)Nc2cccc3[nH]ncc23)ccc1N1[C@@H]2CCC[C@H]1CC2 [1-({4-[(1R,5S)-8-azabicyclo[3.2.1]octan-8-yl]-3-methylphenyl}methyl)-3-1H-indazol-4-ylurea] |
| – | 7.59 | O=C(NCc1ccc(N2[C@@H]3CCC[C@H]2CC3)c(F)c1F)Nc1cccc2[nH]ncc12 [1-({4-[(1R,5S)-8-azabicyclo[3.2.1]octan-8-yl]-2,3-difluorophenyl}methyl)-3-1H-indazol-4-ylurea] |
| – | 7.99 | CC(C)(C)CCc1cc(N2[C@@H]3CCC[C@H]2CC3)ccc1CNC(=O)Nc1cccc2[nH]ncc12 [1-({4-[(1R,5S)-8-azabicyclo[3.2.1]octan-8-yl]-2-(3,3-dimethylbutyl)phenyl}methyl)-3-1H-indazol-4-ylurea] |
| – | 7.45 | CC(C)c1cc(N2[C@@H]3CCC[C@H]2CC3)ccc1CNC(=O)Nc1cccc2[nH]ncc12 [1-({4-[(1R,5S)-8-azabicyclo[3.2.1]octan-8-yl]-2-(propan-2-yl)phenyl}methyl)-3-1H-indazol-4-ylurea] |
| 6.88 | – | O=C(NCc1ccc(N2CCCCCC2)cc1C(F)(F)F)Nc1cccc2[nH]ncc12 [1-{[4-(azepan-1-yl)-2-(trifluoromethyl)phenyl]methyl}-3-1H-indazol-4-ylurea] |
| – | 7.54 | Cc1cc(N2[C@@H]3CCC[C@H]2CC3)ccc1CNC(=O)Nc1cccc2[nH]ncc12 [1-({4-[(1R,5S)-8-azabicyclo[3.2.1]octan-8-yl]-2-methylphenyl}methyl)-3-1H-indazol-4-ylurea] |
| 7.85 | – | O=C(NCc1ccc(N2CCCCCC2)c(F)c1)Nc1cccc2[nH]ncc12 [1-{[4-(azepan-1-yl)-3-fluorophenyl]methyl}-3-1H-indazol-4-ylurea] |
